The source of these data is patent publication US20240091191A1, “USES OF CORYLIN AND/OR NEOBAVAISOFLAVONE IN TREATING SYMPTOMS ASSOCIATED WITH SENESCENCE” (Chang Gung University, priority 2022, published 2024).

Series [1] concerns HaCaT cells. Kind of series: UVB-induced DNA breakage analysis. It counts as cell-based. As to conditions: 100 μM pretreatment 24 hours, UVB 30 mJ/m^2. How it is done: HaCaT cells were seeded into a 12-well plate (7×10^4 cells/well), and incubated with 100 μM corylin or 100 μM neobavaisoflavone, or without drugs, for 24 hours, before subjected to UVB irradiation at 30 mJ/m^2. The irradiated cells were collected, washed, and mixed with 1% agarose gel solution 140 μl at 35° C., before being applied onto slides. The slides were placed at 4° C. for 1 hour for solidifying the gel, immersed in a lysis buffer for at least 1 hour and subsequently in an electrophoresis fluid for 40 minutes, and then subjected to gel-electrophoresis at 25 V for 20 minutes. The slides were immersed in a neutralizing solution for 5 minutes, mounted with 30 μl mounting medium with DAPI, and observed under a fluorescence microscope. The results were analyzed with the software OPEN COMET to quantify the breakage and the repair of the DNA in the cells.

The test system of series [2] is HaCaT cells. The series can be described thus: UVB-induced apoptosis analysis (crystal violet). It counts as cell-based. The note with it: 5 μM corylin or 20 μM neobavaisoflavone 4 hours, UVB 14 mJ/m^2 four runs. Here is the method:
HaCaT cells were seeded into a 12-well plate (7×10^4 cells/well), and incubated with 5 μM corylin or 20 μM neobavaisoflavone, or without drugs, for 4 hours, before subjected to UVB irradiation at 14 mJ/m^2 for four runs. At 24 hours, the irradiated cells were collected, washed, and fixed with 4% paraformaldehyde, before being immersed in 0.5% crystal violet solution for 15 minutes at room temperature. The cells were washed, air-dried, photographed, and immersed in 50% ethanol containing 0.1% glacial acetic acid to remove the crystal violet dye. The absorbance at 550 nm was read by a microplate reader.

Series [3] relates to HaCaT cells. Kind of series: Intracellular NAD+ content. It counts as cell-based. As to conditions: 5 μM corylin or 20 μM neobavaisoflavone, 24 hours. How it is done:
HaCaT cells were seeded into a 6-cm dish (4×10^5 cells/dish), and incubated with 5 μM corylin or 20 μM neobavaisoflavone, or without drugs, for 24 hours, before being harvested. The harvested cells were extracted with 250 μl of 1 M glacial formic acid saturated with butanol, incubated for 30 minutes on ice. Then, 62.5 μl of 100% TCA (w/v) was added to each sample, and the samples were incubated on ice for an additional 15 minutes. The samples were pelleted by centrifugation at 14,000×g for 5 minutes, and the supernatant was transferred to another eppendorf tube. The pellets were then washed with 125 μl of 20% TCA, and centrifuged, and the supernatant was combined with the aforementioned supernatant. The combined supernatants were used for the following tests. […] After incubation at 30° C. for 20 minutes, the absorbance of each sample was measured at 340 nm. The NAD^+ level of the cells in each supernatant sample was determined by the test sample (the alcohol ADH catalytic group) relative to the corresponding control sample (the water group, as the basal NADH level).

The nature of series [4]: Pharmacokinetic analysis, serum level after corylin oral gavage. It counts as in vivo, mouse. As to conditions: mice. Here is the method: The blood samples of the C57BL/6J male mice (n=4) were collected at 1, 3, 6, 9, 12 and 15 h after corylin oral gavage, and the serum samples were then separated therefrom. Each serum sample (100 μl) was mixed with ice-cold acetonitrile (150 μl) at 4° C. for 1 hour, and then centrifuged at 15,000×g and 4° C. for 15 min. After centrifugation, the supernatant (150 μl) was harvested, and 150 μl ddH2O was added. The resulting mixture was analyzed by a LC/FTMS system.

A short description of series [5]: Body weight and food intake of aged HFD-fed mice. It counts as in vivo, mouse. The note with it: entire course of the experiment. How it is done: (§1) All animal procedures were complied with relevant regulations and were conducted under approved protocols (Protocol #CGU15-150) by Research Guidelines for the Care and Use of Laboratory Animals, Chang Guan University. C57BL/6J male mice (34 weeks of age) were maintained at 23±1° C. and at humidity of 45-65% with a 12 h dark/light cycle. After reaching 40 weeks of age, the mice were randomly divided into two groups: Group I (HFD), fed a HFD with 54% fat (n=30), and Group II (HFD/C), fed a HFD containing corylin (1 g corylin/1 kg HFD) (or the dose of corylin was 50 mg/kg) (n=30).
(§2) The ability of corylin to delay the aging process in mice was examined in the present example. To this purpose, aged C57BL/6J mice (forty-week-old) were fed with a HFD or a HFD plus 0.1% (w/w) corylin (HFD/C) ad libitum for the rest of their lives.

The test system of the next series is p21. The series can be described thus: Western blot of p21 expression in HUVECs. As to conditions: late stage HUVECs (PDL9). It counts as cell-based, human. How it is done:
HUVECs were cultured in M199 medium supplemented with 4-(2-hydroxyethyl)-1-piperazineethanesulfonic acid (HEPES), endothelial cell growth supplement (ECGS; Millipore), heparin, NaHCO3, L-glutamine, sodium pyruvate, and 20% fetal bovine serum (FBS; final concentration). HaCaT cells were cultured in DMEM supplemented with 10% FBS and 2 mM glutamine. The cells were grown in an atmosphere of 5% CO2 at 37° C., and passaged to maintain under 90% confluency. The cells were propagated until senescence, and those in every passage were collected for further analysis, numbers of which were determined when sub-cultured. Population doublings (PDs) were estimated following the equation: PDL=3.32 (log(total viable cells at harvest/total viable cells at seeding). The cells were harvested and lysed in RIPA lysis buffer containing 1% of Triton X-100 and a protease inhibitor cocktail, and total protein concentrations were measured with a protein assay kit. Proteins in the samples of the lysates with the same amounts of total protein were separated by sodium dodecyl sulfate polyacrylamide gel electrophoresis (SDS-PAGE) (10% polyacrylamide gels) and analyzed by immunoblotting. Primary antibodies against p21 and β-actin were applied to detect the corresponding proteins. […] Protein quantification was performed by software.

For series [6], the system named is HUVECs. Kind of series: Population doubling level (PDL) of HUVECs. It counts as cell-based, human. Here is the method: HUVECs were cultured in M199 medium supplemented with 4-(2-hydroxyethyl)-1-piperazineethanesulfonic acid (HEPES), endothelial cell growth supplement (ECGS; Millipore), heparin, NaHCO3, L-glutamine, sodium pyruvate, and 20% fetal bovine serum (FBS; final concentration). HaCaT cells were cultured in DMEM supplemented with 10% FBS and 2 mM glutamine. The cells were grown in an atmosphere of 5% CO2 at 37° C., and passaged to maintain under 90% confluency. The cells were propagated until senescence, and those in every passage were collected for further analysis, numbers of which were determined when sub-cultured.

Another series concerns aged C57BL/6J mice. Kind of series: Survival of aged mice fed HFD with or without corylin. It counts as in vivo, mouse. As to conditions: corylin supplement 0.1% (w/w) in HFD. How it is done: as §1, §2
In series [7] the test system is HUVECs. The series can be described thus: Senescence-associated (SA)-β-gal staining of HUVECs. It counts as cell-based, human. The note with it: late stage HUVECs (PDL9), vs control without corylin. Here is the method:
HUVECs at 90% confluency were collected, washed, and fixed with 2% formaldehyde and 0.2% glutaraldehyde for 5 minutes. The cells were then subjected to staining by incubation with a staining solution (40 mmol/l citric acid, sodium phosphate, pH 6.0, 1 mg/ml 5-bromo-4-chloro-3-isolyl-β-D-galactoside (X-gal, Sigma), 5 mmol/l potassium ferrocyanide, 5 mmol/l potassium ferricyanide, 150 mmol/l NaCl, and 2 mmol/l MgCl2) at 37° C. for 18 hours. The results of SA-β-gal-positive cells were observed by microscopy, and were counted for over 300 cells in at least three independent fields.

SMILES strings stand for the structures.

As for `CC(C)=CCc1cc(-c2coc3cc(O)ccc3c2=O)ccc1O` [neobavaisoflavone], in the series with HaCaT cells [1], the “UVB-induced DNA breakage” value is reported as “completely suppressed”. In addition, the “survival rate of the cell under UVB irradiation” value in the series with HaCaT cells [2] is “significantly increased”. Further, in the series on HaCaT cells [3], the “intracellular NAD+ level” value is “elevate”.
As for `CC1(C)C=Cc2cc(-c3coc4cc(O)ccc4c3=O)ccc2O1` [corylin], the “UVB-induced DNA breakage” value with HaCaT cells [1] was “completely suppressed”. The molecule further registered a concentration at 1 h in series [4] (male, C57BL/6J, mouse, serum, 1 hour after oral gavage) of 680 nM. In addition, the concentration at 3 h in series [4] (male, C57BL/6J, mouse, serum, 3 hours after oral gavage) is 500 nM. Besides, the concentration at 6 h in [4] (male, C57BL/6J, mouse, serum, 6 hours after oral gavage) amounted to 490 nM. Moreover, the concentration at 9 h in series [4] (male, C57BL/6J, mouse, serum, 9 hours after oral gavage) is 540 nM. In addition, the concentration at 12 h is 0.39 µM in series [4] (male, C57BL/6J, mouse, serum, 12 hours after oral gavage); 0.68 µM in [4] (1 hour after oral gavage); 0.26 µM in [4] (15 hours after oral gavage). This molecule also came in with a concentration at 15 h in series [4] (male, C57BL/6J, mouse, serum, 15 hours after oral gavage) of 260 nM. Besides, the “trajectory of body weight vs HFD group” value in series [5] is “did not diverge”. Besides, the “trajectory of food intake vs HFD group” value in [5] is recorded as “did not diverge”. For the same molecule, the “expression level of p21” value with p21 was “decreased”. Besides, the “survival rate of the cell under UVB irradiation” value with HaCaT cells [2] is recorded as “significantly increased”. In addition, in the series with HUVECs [6], the “population doubling level (PDL) of HUVECs” value is “increase”. Further, the “lifespan of aged mice fed on high fat diet” value with aged C57BL/6J mice is “significantly increased”. In addition, the “intracellular NAD+ level” value in the series with HaCaT cells [3] is “elevate”. Further, the “number of SA-β-gal-positive senescent cells” value with HUVECs [7] is on record as “decrease”.
